We go through 16 compounds from patent publication US20100093719A1, “PHARMACOKINETICALLY IMPROVED COMPOUNDS” (SURFACE LOGIX, INC., priority 2005, published 2010).

Values after ≈ are worked out from the molar mass of the structure shown. Read-outs that look alike come from different tables or passages of the source.

A short description of series [1]: PAMPA permeability. It is filed as in vitro ADME.
Series [2] is described as follows: Solubility. It is filed as physicochemical.
Series [3] relates to Caco-2. Put plainly: Caco-2 permeability. Type of series: in vitro ADME. The source says: Several model systems are available, employing monolayers of various cell types, for evaluation of active transport of pharmaceutically active substances. For example, monolayers of Caco-2 intestinal epithelial cells can be used to evaluate active transport of substances between the intestine and the bloodstream. When plated on a surface which allows the flow of material from apical to basolateral and vice versa, such cells form a biological membrane which can be used to simulate physiological absorption and bio-availability. In another example, mouse brain capillary endothelial cell (MBEC) lines have been established to evaluate active transport in and out of the central nervous system. Another example of such cells is HT29 human colon carcinoma cells. Further, monolayers expressing particular transporter proteins can be established using transfected cells. For example, Sasaki et al (2002) J. Biol. Chem. 8:6497 used a double-transfected Madin-Darby canine kidney cell monolayer to study transport of organic anions.
(In general: Passage across Caco-2 layers is used to estimate intestinal permeability.)

The target of series [4] is PDE-5 (Bos taurus, UniProt Q28156). The series can be described thus: Phosphodiesterase inhibition PDE-5 bovine. Type of series: biochemical. The procedure:
(§1) Phosphodiesterase inhibition was determined by methods known to one of skill in the art.

Series [5] can be described thus: RLM stability T1/2. Type of series: in vitro ADME. The conditions noted are these: rat, liver microsomes. (Liver microsomes are vesicles of endoplasmic reticulum, rich in cytochrome P450 enzymes.)
Series [6] can be described thus: Non-specific binding. It is filed as in vitro ADME.
The target of series [7] is PDE5 (Homo sapiens, UniProt O76074). Put plainly: Phosphodiesterase inhibition PDE-5 human. Type of series: biochemical. The procedure: as §1
The nature of series [8]: in vitro.
Series [9] is described as follows: Cytotox LC50. The conditions noted are these: read-out: Cytotox LC50 Acute.
Series [10] is described as follows: Cytotox GC50. It is filed as cell-based.
Where [11] appears, read: pH 2.7, aqueous buffer, read-out: Solubility pH 2.7.
The mark [12] stands for this setting: pH 7.4, aqueous buffer, read-out: Solubility pH 7.4.

As usually defined, the solubility is the dissolved amount per volume that the medium holds. In general, IC50 refers to the point on the concentration scale where inhibition reaches its midpoint. A word on the half-life: it is how long it takes for the measured level to halve. Turning to `CCCc1nc(C)c2c(=O)[nH]c(-c3cc(S(=O)(=O)N(C)CC(=O)N(C)CC(=O)N(C)C)ccc3OCC)nn12` [Compound 4], the “PAMPA Hex” value in series [1] is reported as 0.47 10^−6. The “PAMPA Lec” value in series [1] (Lec) was 0.056 10^−6. Moreover, the solubility amounted to 112 µM (≈ 62.9 µg/mL) in series [2] (setting [11]) and 109 µM (≈ 61.2 µg/mL) in [2] (setting [12]). In [3], the “Caco-2 AtoB” value is 2.97 10^−6. Further, the “Caco-2 BtoA” value in series [3] was 25.95 10^−6. The 50% inhibitory concentration (IC50) worked out at 0.084 nM in series [4] and 0.11 nM in series [7]. Moreover, in series [5], the half-life came to 64 min. In addition, the “Non-Spec Binding” value in series [6] turned out to be 7%.
As for `CCCc1nc(C)c2c(=O)[nH]c(-c3cc(S(=O)(=O)N4CCCC4C(=O)N(C)C)ccc3OCC)nn12` (stereo not shown) [Compound 5], the “PAMPA Hex” value in series [1] is on record as 13.18 10^−6. For the same compound, the solubility amounted to 100 µM (≈ 51.7 µg/mL) in series [2] (setting [11]) and 93 µM (≈ 48 µg/mL) in [2] (setting [12]). For the same compound, the “Caco-2 AtoB” value in series [3] was 19.4 10^−6. For the same compound, the “Caco-2 BtoA” value in series [3] is reported as 60.2 10^−6. In addition, the half-maximal inhibitory concentration (IC50) in series [4] stood at 1.6 nM; in series [7], 2.3 nM. Moreover, the half-life in series [5] came to 30.1 min.
Regarding `CCCc1nc(C)c2c(=O)[nH]c(-c3cc(S(=O)(=O)N(C)CC(=O)N4CCOCC4)ccc3OCC)nn12` [Compound 6], the “PAMPA Hex” value in [1] is 0.78 10^−6. The solubility in series [2] (setting [11]) and in series [2] (setting [12]) was above 100 µM throughout. The “Caco-2 AtoB” value in series [3] is reported as 11.16 10^−6. In addition, the “Caco-2 BtoA” value in [3] is 55.15 10^−6. In [6], the “Non-Spec Binding” value is listed as 7.3%. For the same compound, 0.68 nM corresponded to half-maximal inhibition in [7] (IC50).
Consider `CCCc1nc(C)c2c(=O)[nH]c(-c3cc(S(=O)(=O)N(C)CC(=O)N4CCN(C)CC4)ccc3OCC)nn12` [Compound 7], for which the “PAMPA Hex” value in series [1] is recorded as 0.18 10^−6. For the same compound, in series [2] (setting [11]), the solubility is above 100 µM. Moreover, the solubility in [2] (setting [12]) was above 100 µM. In series [3], the “Caco-2 AtoB” value is on record as 4.35 10^−6 and the “Caco-2 BtoA” value is 35.58 10^−6. Moreover, the “Non-Spec Binding” value in series [6] came to 2.6%. Also, in [7], the IC50 came to 0.535 nM.
For the compound `CCCc1nc(C)c2c(=O)[nH]c(-c3cc(S(=O)(=O)N(C)CC(=O)N(CC)CC)ccc3OCC)nn12` [Compound 8], in series [1], the “PAMPA Hex” value is on record as 21.81 10^−6. In [2] (setting [11]), the solubility was above 100 µM. For the same compound, in [2] (setting [12]), the solubility was above 100 µM. Moreover, in series [3], the “Caco-2 AtoB” value is reported as 42.03 10^−6 and the “Caco-2 BtoA” value is 77.41 10^−6. Further, the half-life in [5] came out at 15 min. Moreover, the “Non-Spec Binding” value in series [6] is reported as 19%. The compound also displayed an IC50 in series [7] of 0.78 nM.
Regarding `CCCc1nc(C)c2c(=O)[nH]c(-c3cc(S(=O)(=O)N(C)CC(=O)N(C)CCN(C)C)ccc3OCC)nn12` [Compound 9], the “PAMPA Hex” value in [1] is reported as 0.03 10^−6. Besides, the solubility in series [2] (setting [11]) is above 100 µM. Also, in [2] (setting [12]), the solubility was above 100 µM. Further, in series [3], the “Caco-2 AtoB” value is on record as 2.33 10^−6 and the “Caco-2 BtoA” value is 11.31 10^−6. In series [6], the “Non-Spec Binding” value stood at 9.8%. This compound returned a half-maximal inhibitory concentration (IC50) in series [7] of 1.5 nM.
On to `CCCc1nc(C)c2c(=O)[nH]c(-c3cc(S(=O)(=O)N(CC)CC(=O)N(CC)CC)ccc3OCC)nn12` [Compound 10], for which the “PAMPA Hex” value in series [1] is 67.04 10^−6. The results for the solubility in [2] (setting [11]) and in series [2] (setting [12]) were 77.9 µM (≈ 41.5 µg/mL) and 78.5 µM (≈ 41.8 µg/mL), respectively. In [7], this compound returned an IC50 of 0.32 nM.
On to `CCCc1nc(C)c2c(=O)[nH]c(-c3cc(S(=O)(=O)N(C)[C@@H](C)C(=O)N(C)C)ccc3OCC)nn12` [Compound 12], for which, in [1], the “PAMPA Hex” value is 13.93 10^−6. The CC50 in series [8] was at least 100000 nM; in series [9] it was 100000 nM. Moreover, the solubility in series [2] (setting [11]) turned out to be 96 µM (≈ 48.4 µg/mL); in [2] (setting [12]), 100 µM (≈ 50.5 µg/mL). Besides, in [3], the “Caco-2 AtoB” value is 33.39 10^−6. Moreover, the “Caco-2 BtoA” value in series [3] was 50.43 10^−6. In addition, the half-life in [5] stood at 32.2 min. Also, the “Non-Spec Binding” value in series [6] came out at 30.7%. Besides, the “Cytotox GC50” value in series [10] stood at 99300 nM. The IC50 in series [7] was found to be 0.298 nM.
For the compound `CCCc1nc(C)c2c(=O)[nH]c(-c3cc(S(=O)(=O)N(C)[C@@H](C)C(=O)NC)ccc3OCC)nn12` [Compound 13], the “PAMPA Hex” value in series [1] was 0.42 10^−6. Besides, in [8], the CC50 is at least 100000 nM. The results for the solubility in series [2] (setting [11]) and in series [2] (setting [12]) were 69.4 µM (≈ 34 µg/mL) and 74.6 µM (≈ 36.6 µg/mL), respectively. The “Cytotox GC50” value in [10] turned out to be 94000 nM. Further, in series [7], the concentration for half-maximal inhibition (IC50) was 0.17 nM.
Consider `CCCc1nc(C)c2c(=O)[nH]c(-c3cc(S(=O)(=O)N(C)[C@H](C)C(=O)NC)ccc3OCC)nn12` [Compound 14], for which, in series [1], the “PAMPA Hex” value is on record as 0.47 10^−6. Also, in series [8], the CC50 was at least 100000 nM. In addition, the solubility amounted to 62.6 µM (≈ 30.7 µg/mL) in series [2] (setting [11]) and 64 µM (≈ 31.4 µg/mL) in series [2] (setting [12]). Also, the “Cytotox GC50” value in series [10] amounted to 88000 nM. Moreover, in series [7], inhibition was half-maximal at 0.35 nM (IC50).
As for `CCCc1nc(C)c2c(=O)[nH]c(-c3cc(S(=O)(=O)N(C)C(C)(C)C(=O)NC)ccc3OCC)nn12` [Compound 15], in series [1], the “PAMPA Hex” value is given as 0.25 10^−6. The CC50 in series [8] was at least 100000 nM. Moreover, in [3], the “Caco-2 AtoB” value is reported as 6.8 10^−6 and the “Caco-2 BtoA” value is listed as 34.9 10^−6. Moreover, the “Cytotox GC50” value in series [10] was found to be 95000 nM. The IC50 in [7] was 0.256 nM.
As to `CCCc1nc(C)c2c(=O)[nH]c(-c3cc(S(=O)(=O)N(C)C4(C(=O)N(C)C)CC4)ccc3OCC)nn12` [Compound 16], the “PAMPA Hex” value in [1] was 3.41 10^−6. Besides, in series [8], the CC50 is at least 100000 nM. In addition, the figures for the solubility in [2] (setting [11]) and in series [2] (setting [12]) were 74.7 µM (≈ 38.6 µg/mL) and 82.5 µM (≈ 42.6 µg/mL), respectively. The “Cytotox GC50” value in [10] is 100000 nM. In series [7], this compound came in with an IC50 of 0.42 nM.
Consider `CCCc1nc(C)c2c(=O)[nH]c(-c3cc(S(=O)(=O)N[C@@H](C)C(=O)N(C)C)ccc3OCC)nn12` [Compound 17], for which the “PAMPA Hex” value in series [1] is 0.26 10^−6. The same compound returned a CC50 in [8] of at least 100000 nM. In addition, the solubility in series [2] (setting [11]) was determined as 70 µM (≈ 34.4 µg/mL); in [2] (setting [12]) it was 78.4 µM (≈ 38.5 µg/mL). The “Cytotox GC50” value in [10] turned out to be 100000 nM. The same compound returned an IC50 in series [7] of 0.66 nM.
As to `CCCc1nc(C)c2c(=O)[nH]c(-c3cc(S(=O)(=O)N[C@H](C)C(=O)N(C)C)ccc3OCC)nn12` [Compound 18], the “PAMPA Hex” value in [1] is 0.18 10^−6. In [8], this compound registered a CC50 of at least 100000 nM. Besides, the values for the solubility in series [2] (setting [11]) and in series [2] (setting [12]) were 70.3 µM (≈ 34.5 µg/mL) and 75.8 µM (≈ 37.2 µg/mL), respectively. The “Cytotox GC50” value in series [10] is 100000 nM. For the same compound, the midpoint of inhibition in [7], the IC50, lay at 0.36 nM.
For `CCCc1nc(C)c2c(=O)[nH]c(-c3cc(S(=O)(=O)NC(C)(C)C(=O)N(C)C)ccc3OCC)nn12` [Compound 19], the “PAMPA Hex” value in series [1] is listed as 0.17 10^−6. In addition, the CC50 in series [8] is at least 100000 nM. The solubility in [2] (setting [11]) was above 100 µM. Moreover, the solubility in series [2] (setting [12]) worked out at 7.1 µM (≈ 3.58 µg/mL). In addition, in [3], the “Caco-2 AtoB” value is 2.43 10^−6 and the “Caco-2 BtoA” value is 33 10^−6. In addition, in [10], the “Cytotox GC50” value amounted to 100000 nM. For the same compound, in series [7], the IC50 worked out at 0.193 nM.
For the compound `CCCc1nc(C)c2c(=O)[nH]c(-c3cc(S(=O)(=O)N(C)CC(=O)NC)ccc3OCC)nn12` [Compound 21], the “PAMPA Hex” value in series [1] is on record as 0.24 10^−6. For the same compound, the solubility in [2] (setting [11]) and in series [2] (setting [12]) was above 100 µM in each case. Moreover, in [3], the “Caco-2 AtoB” value was 5.15 10^−6. The “Caco-2 BtoA” value in [3] is reported as 31.45 10^−6. Half-maximal inhibition in series [7] (IC50) was put at 0.25 nM.
